The values below come from patent publication US9868746B2, “Substituted 5-aminothieno[2,3-C]pyridazine-6-carboxamide analogs as positive allosteric modulators of the muscarinic acetylcholine receptor M4” (Vanderbilt University, priority 2012, dated 2018).

The experiment deals with T1, mAChR M4 (Homo sapiens, UniProt P08173).
T1 construct: expressed in transfected cells; host or cells: CHO-K1 cells stably transfected with M4 cDNA and chimeric G-protein Gqi5
T1 sequence (P08173 1-479): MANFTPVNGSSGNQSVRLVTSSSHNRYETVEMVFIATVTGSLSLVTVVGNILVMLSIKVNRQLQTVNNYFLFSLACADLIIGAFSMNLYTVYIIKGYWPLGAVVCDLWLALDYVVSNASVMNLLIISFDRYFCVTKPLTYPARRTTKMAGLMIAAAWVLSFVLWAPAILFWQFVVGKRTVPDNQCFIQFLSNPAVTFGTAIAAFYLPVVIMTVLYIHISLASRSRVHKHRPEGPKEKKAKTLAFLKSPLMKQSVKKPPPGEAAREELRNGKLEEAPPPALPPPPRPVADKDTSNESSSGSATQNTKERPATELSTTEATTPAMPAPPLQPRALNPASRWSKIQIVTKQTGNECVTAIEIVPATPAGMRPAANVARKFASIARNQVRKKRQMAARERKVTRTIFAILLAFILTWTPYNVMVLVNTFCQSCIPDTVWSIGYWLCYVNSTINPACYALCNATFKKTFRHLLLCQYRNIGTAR
Kind of experiment: mAChR M4 cell-based functional assay (calcium mobilization, potentiation of EC20 acetylcholine response). Particulars: for Emax at 30 µM / Emax (%)*: % ACh maximum at 30 μM; for EC50: mAChR M4 cell-based functional assay, >10,000 estimated for low potency compounds without plateau, read-out: EC50.

As a reminder, the Emax is the greatest response seen or fitted, relative to the assay's reference. A word on the EC50: it is the concentration at which the effect is half-maximal. Turning to `COc1ccc([C@H]2C[C@@H]2NC(=O)c2sc3nnc(C)c(C)c3c2N)cc1` (single isomer, unassigned) [Example B31], the maximal response (Emax) at 30 µM stood at 79% and the EC50 is 0.0075 µM.

As for `COc1ccc([C@@H]2C[C@H]2NC(=O)c2sc3nnc(C)c(C)c3c2N)cc1` (single isomer, unassigned) [Example B32], the Emax at 30 µM came to 73% and the EC50 is 0.3 µM.

As to `Cc1nnc2sc(C(=O)N[C@H]3C[C@@H]3c3ccc(S(C)(=O)=O)cc3)c(N)c2c1C` (single isomer, unassigned) [Example B110], the Emax at 30 µM stood at 62% and the EC50 is 0.018 µM.

`Cc1nnc2sc(C(=O)N[C@@H]3C[C@H]3c3ccc(S(C)(=O)=O)cc3)c(N)c2c1C` (single isomer, unassigned) [Example B111]: the Emax at 30 µM came to 60% and the EC50 was 0.24 µM.

As for `Cc1nnc2sc(C(=O)NCc3ccc(C(C)(O)C(F)(F)F)cc3)c(N)c2c1C` (single isomer, unassigned) [Example B186], the Emax at 30 µM worked out at 75% and the EC50 is 0.019 µM.

In the case of `Cc1nnc2sc(C(=O)NCc3ccc(C(C)(O)C(F)(F)F)cc3)c(N)c2c1C` (single isomer, unassigned) [Example B187], the “Emax (%)*” value is 84% and the EC50 was 0.02 µM.

Consider `Cc1nnc2sc(C(=O)NCc3ccc([S+]([O-])C(F)F)cc3)c(N)c2c1C` (single isomer, unassigned) [Example B491], for which the Emax at 30 µM came out at 63% and the EC50 was 0.12 µM.

For the compound `Cc1nnc2sc(C(=O)NCc3ccc([S+]([O-])C(F)F)cc3)c(N)c2c1C` (single isomer, unassigned) [Example B510], the “Emax (%)*” value is 70% and the EC50 was 0.5 µM.

As for `Nc1c(C(=O)NC2CC2)sc2nnccc12` [Example B1], the Emax at 30 µM is 40% and the EC50 is over 10 µM.

Turning to `COc1ccc(CNC(=O)c2sc3nnccc3c2N)cc1` [Example B2], the Emax at 30 µM worked out at 61% and the EC50 is over 10 µM.

In the case of `Cc1nnc2sc(C(=O)NCc3ncccn3)c(N)c2c1C` [Example B3], the Emax at 30 µM stood at 46% and the EC50 was over 10 µM.

`Cc1cc(CNC(=O)c2sc3nnc(C)c(C)c3c2N)ccn1` [Example B4]: the Emax at 30 µM came to 96% and the EC50 was 0.64 µM.

With `Cc1nnc2sc(C(=O)NCc3cc(F)ccc3F)c(N)c2c1C` [Example B5], the Emax at 30 µM was 86% and the EC50 was 0.18 µM.

With `Cc1nnc2sc(C(=O)NCC3CC3)c(N)c2c1C` [Example B6], the Emax at 30 µM was 89% and the EC50 is 0.5 µM.

Turning to `Cc1nnc2sc(C(=O)NCc3cccc(F)c3)c(N)c2c1C` [Example B7], the Emax at 30 µM worked out at 97% and the EC50 was 0.14 µM.

Consider `Cc1nnc2sc(C(=O)NC3CC3)c(N)c2c1C` [Example B8], for which the Emax at 30 µM was determined as 97% and the EC50 is 0.26 µM.

Consider `Cc1nnc2sc(C(=O)NCc3ccccc3)c(N)c2c1C` [Example B9], for which the Emax at 30 µM was 97% and the EC50 was 0.17 µM.

On to `Cc1nnc2sc(C(=O)NCc3cnccn3)c(N)c2c1C` [Example B10], for which the Emax at 30 µM came to 82% and the EC50 was over 10 µM.

Consider `Cc1nnc2sc(C(=O)NCc3nccs3)c(N)c2c1C` [Example B11], for which the Emax at 30 µM is 82% and the EC50 was 1.5 µM.

For `Cc1nnc2sc(C(=O)NCc3ccc4c(c3)OCO4)c(N)c2c1C` [Example B12], the Emax at 30 µM stood at 90% and the EC50 is 0.093 µM.

Turning to `Cc1nnc2sc(C(=O)NCc3ccccn3)c(N)c2c1C` [Example B13], the Emax at 30 µM was 58% and the EC50 is 1 µM.

Turning to `Cc1nnc2sc(C(=O)NCc3ccncc3)c(N)c2c1C` [Example B14], the Emax at 30 µM worked out at 100% and the EC50 is 0.32 µM.

For `Cc1nnc2sc(C(=O)NCc3cccc(F)c3F)c(N)c2c1C` [Example B15], the Emax at 30 µM stood at 97% and the EC50 was 0.1 µM.
